Reference: US20100061982A1, “3-SUBSTITUTED-1H-INDOLE, 3-SUBSTITUTED-1H-PYRROLO[2,3-B]PYRIDINE AND 3-SUBSTITUTED-1H-PYRROLO[3,2-B]PYRIDINE COMPOUNDS, THEIR USE AS MTOR KINASE AND PI3 KINASE INHIBITORS, AND THEIR SYNTHESES” (priority 2008, published 2010)
≈ marks a conversion by molar mass, not a printed value. Read-outs that look alike come from different tables or passages of the source.

Legend:
[1] = CACO2 permeability a-b/b-a; assay type: in vitro ADME; settings: human, Caco-2
[2] = Microsome Stability (15 min), human; assay type: in vitro ADME; settings: microsomes
[3] = Microsome Stability (15 min), nude mouse; assay type: in vitro ADME; settings: nude, mouse, microsomes
[4] = Microsome Stability (15 min), rat; assay type: in vitro ADME; settings: microsomes
mTOR = mTOR (Homo sapiens, UniProt P42345); assay: mTOR Enzyme Assay (DELFIA, purified enzyme); assay type: biochemical; parameters: FLAG
[5] = PAMPA permeability pH 7.4
[6] = Buffer Stability (37° C.)
[7] = In vivo blood/plasma and tumor levels of prodrug and metabolites after 50 mg, kg po; settings: 50 mg
Solubility pH 7.4 = settings: pH 7.4, aqueous buffer
PI3K alpha = PI3K alpha (Homo sapiens, UniProt P42336); assay: PI3K-alpha Fluorescence Polarization Assay; assay type: biochemical
Chain of PI3K alpha (P42336 whole entry, species assumed): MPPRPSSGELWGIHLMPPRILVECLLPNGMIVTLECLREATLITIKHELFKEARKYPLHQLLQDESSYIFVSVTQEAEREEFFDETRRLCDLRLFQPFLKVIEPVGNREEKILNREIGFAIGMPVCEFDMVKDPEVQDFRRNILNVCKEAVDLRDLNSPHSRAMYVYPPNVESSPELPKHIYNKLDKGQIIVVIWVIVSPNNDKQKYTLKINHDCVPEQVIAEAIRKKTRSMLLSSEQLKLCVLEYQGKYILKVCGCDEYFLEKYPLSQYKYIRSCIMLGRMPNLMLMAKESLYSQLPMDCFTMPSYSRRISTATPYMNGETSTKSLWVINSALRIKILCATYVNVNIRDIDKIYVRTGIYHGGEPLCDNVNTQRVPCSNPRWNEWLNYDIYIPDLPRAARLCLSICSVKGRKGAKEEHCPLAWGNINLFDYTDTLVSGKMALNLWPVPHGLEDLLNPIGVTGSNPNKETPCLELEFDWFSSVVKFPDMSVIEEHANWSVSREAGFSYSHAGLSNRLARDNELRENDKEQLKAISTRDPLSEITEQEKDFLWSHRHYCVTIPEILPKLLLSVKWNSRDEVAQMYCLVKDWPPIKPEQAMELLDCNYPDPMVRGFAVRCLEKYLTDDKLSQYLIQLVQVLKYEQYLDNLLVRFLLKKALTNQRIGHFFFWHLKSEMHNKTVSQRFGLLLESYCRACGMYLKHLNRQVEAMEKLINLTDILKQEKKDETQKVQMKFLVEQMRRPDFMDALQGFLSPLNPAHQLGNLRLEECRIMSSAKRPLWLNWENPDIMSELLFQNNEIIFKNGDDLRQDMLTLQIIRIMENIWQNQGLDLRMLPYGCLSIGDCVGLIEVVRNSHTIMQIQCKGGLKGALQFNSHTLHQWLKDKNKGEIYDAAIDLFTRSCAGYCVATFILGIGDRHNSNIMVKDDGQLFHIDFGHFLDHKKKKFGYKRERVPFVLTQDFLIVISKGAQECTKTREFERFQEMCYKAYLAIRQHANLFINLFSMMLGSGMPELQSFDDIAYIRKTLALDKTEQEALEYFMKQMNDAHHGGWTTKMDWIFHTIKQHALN
Chain of PI3K alpha (P27986 whole entry partner, species assumed): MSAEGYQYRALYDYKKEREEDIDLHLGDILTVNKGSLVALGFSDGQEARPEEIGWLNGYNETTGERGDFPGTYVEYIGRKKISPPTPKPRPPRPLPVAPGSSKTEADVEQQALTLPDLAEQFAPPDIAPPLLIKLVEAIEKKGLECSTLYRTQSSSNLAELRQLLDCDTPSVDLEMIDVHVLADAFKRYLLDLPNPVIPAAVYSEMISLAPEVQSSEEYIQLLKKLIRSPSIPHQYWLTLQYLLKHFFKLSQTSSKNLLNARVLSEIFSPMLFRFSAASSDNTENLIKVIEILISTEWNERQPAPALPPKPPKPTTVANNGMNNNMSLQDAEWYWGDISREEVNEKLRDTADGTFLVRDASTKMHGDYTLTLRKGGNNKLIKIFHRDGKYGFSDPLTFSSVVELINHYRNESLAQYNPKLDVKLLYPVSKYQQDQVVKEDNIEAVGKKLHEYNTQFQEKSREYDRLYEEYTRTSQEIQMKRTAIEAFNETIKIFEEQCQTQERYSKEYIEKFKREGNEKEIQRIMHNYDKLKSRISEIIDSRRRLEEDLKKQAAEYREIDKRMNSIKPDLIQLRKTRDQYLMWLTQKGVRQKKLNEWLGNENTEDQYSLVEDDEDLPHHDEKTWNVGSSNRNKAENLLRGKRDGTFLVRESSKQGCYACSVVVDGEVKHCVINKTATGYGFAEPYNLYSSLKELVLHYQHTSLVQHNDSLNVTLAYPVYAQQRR

[8] = Plasma Stability (37° C.), rat
[9] = Plasma Stability (37° C.), nude mouse
[10] = Phase I (NADPH), read-out: Microsome Stability (15 min) T ½ Phase I human
[11] = value after the slash in Table VIc, read-out: Microsome Stability (15 min) T ½ human, second value of cell
[12] = Phase I (NADPH), read-out: Microsome Stability (15 min) T ½ Phase I nude mouse
[13] = value after the slash in Table VIc, read-out: Microsome Stability (15 min) T ½ nude mouse, second value of cell
[14] = Phase I (NADPH), read-out: Microsome Stability (15 min) T ½ Phase I rat
[15] = value after the slash in Table VIc, read-out: Microsome Stability (15 min) T ½ rat, second value of cell

Row | SMILES | half-life [2, 10] | half-life [3, 12] | half-life [4, 14] | IC50 (mTOR; read-out: mTOR Mean IC50) | PAMPA Pe [5] | Buffer Stability (37° C.) % Remaining (at 16-23 hours) SGF [6] | Buffer Stability (37° C.) % Remaining (at 16-23 hours) SIF [6] | Buffer Stability (37° C.) % Remaining (at 16-23 hours) pH 1 [6] | Buffer Stability (37° C.) % Remaining (at 16-23 hours) pH 4.5 [6] | Buffer Stability (37° C.) % Remaining (at 16-23 hours) pH 6.6 [6] | Buffer Stability (37° C.) % Remaining (at 16-23 hours) pH 7.4 [6] | Buffer Stability (37° C.) % Remaining (at 16-23 hours) pH 9 [6] | solubility (Solubility pH 7.4) | IC50 (PI3K alpha; read-out: PI3K alpha Mean IC50) | IC50 (PI3K alpha) | also measured
1 | COc1ccc2[nH]c(-c3ccccc3)c(C=C3Oc4cc(O)cc(O)c4C3=O)c2c1 [4,6-dihydroxy-2-[(5-methoxy-2-phenyl-1H-indol-3-yl)methylene]-1-benzofuran-3(2H)-one] | 24 min | 29 min | > 30 min | 80 nM | 0 10e−6 cm/s | 95% | 77% | 97% | 96% | 83% | 68% | 72% | – | – | – | Papp A→B ([1]; a − b (first value of cell), read-out: CACO2 Pe a − b): 1.25 ×10⁻⁶ cm/s; Papp B→A ([1]; b − a (second value of cell), read-out: CACO2 Pe b − a): 6.65 ×10⁻⁶ cm/s; half-life [2, 11]: 5 min; half-life [3, 13]: 5 min; half-life [4, 15]: 5 min; plasma prodrug, Dosed @ 50 mg, kg po (precursor phenolic compound dosed) ([7]; 1 h conc.): bql, bql*; plasma prodrug, Dosed @ 50 mg, kg po (precursor phenolic compound dosed) ([7]; 4 h conc.): bql, bql*
2 | COc1ccc2c(c1)c(/C=C1\Oc3cc(O)cc(O)c3C1=O)c(C)n2CCN1CCN(C)CC1 [(2Z)-4,6-dihydroxy-2-({5-methoxy-2-methyl-1-[2-(4-methylpiperazin-1-yl)ethyl]-1H-indol-3-yl}methylene)-1-benzofuran-3(2H)-one] | 11 min | > 30 min | 21 min | 22.5 nM | 0 10e−6 cm/s | 99% | 63% | 99% | 78% | 63% | 66% | 79% | 32 µg/mL (≈ 69 µM) | – | – | half-life [2, 11]: 17 min; half-life [3, 13]: 25 min; half-life [4, 15]: 6 min
3 | COc1ccc2c(c1)c(/C=C1\Oc3cc(O)ccc3C1=O)c(C)n2CCN1CCN(C)CC1 [(2Z)-6-hydroxy-2-({5-methoxy-2-methyl-1-[2-(4-methylpiperazin-1-yl)ethyl]-1H-indol-3-yl}methylene)-1-benzofuran-3(2H)-one] | 6 min | 26 min | 12 min | 325 nM | 0.01 10e−6 cm/s | – | – | – | – | – | – | – | 68 µg/mL (≈ 152 µM) | 12.2 nM | – | half-life [2, 11]: 5 min; half-life [3, 13]: 20 min; half-life [4, 15]: 8 min
4 | COc1ccc2c(c1)c(/C=C1\Oc3cc(OC(=O)N4CCOCC4)cc(OC(=O)N4CCOCC4)c3C1=O)cn2CCCN(C)C [Example 1, (2Z)-2-({1-[3-(dimethylamino)propyl]-5-methoxy-1H-indol-3-yl}methylene)-3-oxo-2,3-dihydro-1-benzofuran-4,6-diyl dimorpholine-4-carboxylate] | – | – | > 30 min | > 4000 nM | 1.4 10e−6 cm/s | – | – | – | – | – | – | – | > 100 µg/mL | – | > 10000 nM | –
5 | COc1ccc2[nH]c(-c3ccccc3)c(/C=C3\Oc4cc(OC(C)=O)cc(OC(C)=O)c4C3=O)c2c1 [Example 3, (2Z)-2-[(5-methoxy-2-phenyl-1H-indol-3-yl)methylene]-3-oxo-2,3-dihydro-1-benzofuran-4,6-diyl diacetate] | 12 min | 9 min | > 30 min | – | 0 10e−6 cm/s | 66% | 0% | 2% | 64% | 0% | 0% | 0% | – | 2 nM | – | Plasma Stability (37° C.) % Remaining (3-3.5 hours) rat [8]: 42%; Plasma Stability (37° C.) % Remaining (3-3.5 hours) nude mouse [9]: 34%
6 | COc1ccc2[nH]c(-c3ccccc3)c(/C=C3\Oc4cc(OC(=O)OC(C)C)cc(OC(=O)OC(C)C)c4C3=O)c2c1 [Example 7, diisopropyl (2Z)-2-[(5-methoxy-2-phenyl-1H-indol-3-yl)methylene]-3-oxo-2,3-dihydro-1-benzofuran-4,6-diyl biscarbonate] | 5 min | > 30 min | 3 min | – | 0 10e−6 cm/s | 93% | 0% | 94% | 91% | 59% | 16% | 0% | – | 896 nM | – | Plasma Stability (37° C.) % Remaining (3-3.5 hours) rat [8]: 0%; Plasma Stability (37° C.) % Remaining (3-3.5 hours) nude mouse [9]: 22%
7 | COc1ccc2[nH]c(-c3ccccc3)c(/C=C3\Oc4cc(OC(=O)C(C)(C)C)cc(OC(=O)C(C)(C)C)c4C3=O)c2c1 [Example 10, (2Z)-2-[(5-methoxy-2-phenyl-1H-indol-3-yl)methylene]-3-oxo-2,3-dihydro-1-benzofuran-4,6-diyl bis(2,2-dimethylpropanoate)] | 19 min | – | 12 min | – | 0 10e−6 cm/s | 95% | 0% | 86% | 92% | 72% | 44% | 0% | 2 µg/mL (≈ 3.52 µM) | 2780 nM | – | Plasma Stability (37° C.) % Remaining (3-3.5 hours) rat [8]: 6%; Plasma Stability (37° C.) % Remaining (3-3.5 hours) nude mouse [9]: 0%
8 | CCOC(=O)CNC(=O)Oc1ccc2c(c1)O/C(=C\c1cn(CCCN(C)C)c3ccc(OC)cc13)C2=O [Example 25, ethyl N-({[(2Z)-2-({1-[3-(dimethylamino)propyl]-5-methoxy-1H-indol-3-yl}methylene)-3-oxo-2,3-dihydro-1-benzofuran-6-yl]oxy}carbonyl)glycinate] | – | – | – | 610 nM | 0 10e−6 cm/s | – | – | – | – | – | – | – | > 100 µg/mL | – | 86 nM | –
9 | COc1ccc2[nH]c(-c3ccccc3)c(/C=C3\Oc4cc(OP(=O)(O)c5ccccc5)ccc4C3=O)c2c1 [Example 26, (2Z)-2-[(5-methoxy-2-phenyl-1H-indol-3-yl)methylene]-3-oxo-2,3-dihydro-1-benzofuran-6-yl hydrogen phenylphosphonate] | – | – | > 30 min | 2200 nM | 0 10e−6 cm/s | – | – | – | – | – | – | – | 11 µg/mL (≈ 21 µM) | – | 108 nM | –
10 | COc1ccc2c(c1)c(/C=C1\Oc3cc(OC(=O)N4CCN(C)CC4)cc(OC(=O)N4CCN(C)CC4)c3C1=O)cn2CCCN(C)C [Example 36, (2Z)-2-({1-[3-(dimethylamino)propyl]-5-methoxy-1H-indol-3-yl}methylene)-3-oxo-2,3-dihydro-1-benzofuran-4,6-diyl bis(4-methylpiperazine-1-carboxylate)] | – | – | – | 1080 nM | 0.23 10e−6 cm/s | – | – | – | – | – | – | – | 36 µg/mL (≈ 54.5 µM) | – | > 10000 nM | –
11 | COc1ccc2c(c1)c(/C=C1\Oc3cc(O)cc(OC(=O)N(C)C)c3C1=O)c(C)n2CCN1CCN(C)CC1 [Example 39, (2Z)-6-hydroxy-2-({5-methoxy-2-methyl-1-[2-(4-methylpiperazin-1-yl)ethyl]-1H-indol-3-yl}methylene)-3-oxo-2,3-dihydro-1-benzofuran-4-yldimethylcarbamate] | – | – | 27 min | – | 0 10e−6 cm/s | – | – | – | – | – | – | – | > 100 µg/mL | – | 842 nM | IC50 (mTOR): > 4000 nM
12 | CNC(=O)Oc1ccc2c(c1)C(=O)/C(=C/c1cn(CCN3CCN(C)CC3)c3ccc(OC)cc13)O2 [Example 45, (2Z)-2-({5-methoxy-1-[2-(4-methylpiperazin-1-yl)ethyl]-1H-indol-3-yl}methylene)-3-oxo-2,3-dihydro-1-benzofuran-5-yl methylcarbamate] | – | – | 9 min | > 4000 nM | 0.43 10e−6 cm/s | – | – | – | – | – | – | – | 63 µg/mL (≈ 128 µM) | – | – | –
